The structures appear in SMILES notation.

The subject of test [1] is levodopa-induced dyskinesia model cynomolgus monkeys. Briefly: Test Example 3: dyskinesia score in levodopa-induced dyskinesia model monkeys. Also noted: key to Dyskinesia score: dyskinesia score 0 = normal home cage activity to 4 = severe stereotypy. In kind it is in vivo. The procedure:
A levodopa/carbidopa mixture containing 80 mg/kg of levodopa and 20 mg/kg of carbidopa and having a solution volume of 5 mL/kg was orally administered to Parkinson's disease model cynomolgus monkeys at the age of 6 to 7 prepared in the same way as in Test Example 1 for 8 consecutive days to provide levodopa-induced dyskinesia model cynomolgus monkeys. The induction of dyskinesia was determined based on the “dyskinesia score” in accordance with the following behavior evaluation items in the following test on activity in home cages, and animals having dyskinesia scores of 1 or more on day 7 of the repeated administration of the levodopa/carbidopa mixture were used.
Home cage activities corresponding to dyskinesia scores • 0: Normal home cage activity (exploring or inactivity, able to drink water, plays with mirror or caging, climbing of the walls). • 1: Some interference with normal activity, however able to climb walls. • 2: Occasional exploration of cage, some stereotypy • 3: Little normal movement, lack of climbing of walls, clear stereotypy • 4: Lack of normal home cage activity, lack of normal exploratory behavior and movement, severe stereotypy
Seven levodopa-induced dyskinesia model cynomolgus monkeys were randomized into 4 groups of approximately equal mean and variance in terms of body weight. On subsequent cycles 2, 3, and 4, the animals were crossed over to receive the other treatment. A wash out period of one week or more was set between cycles.
One of the seven animals was excluded from the evaluation of cycles 3 and 4 because it was unable to get up due to dyskinesia on day 8 in cycle 3 of the repeated administration of the levodopa/carbidopa mixture.
By the end of the study, each animal had received all the four treatments. Each substance was administered 1 hr. after the administration on day 8 of the repeated administration of the levodopa/carbidopa mixture. As a vehicle, an aqueous solution containing 0.43% (w/v) methyl cellulose 400, 10% (v/v) dimethyl sulfoxide (DMSO), and 4.5% (w/v) Cremophor (R) were used.
Before the administration, and 1 hr., 4 hrs., and 24 hrs. after the administration of the test substances, the dyskinesia scores of the animals were evaluated. The behavior evaluation was performed in a blinded manner. The dyskinesia scores of the groups were compared using Steel's test. The p-values of less than 0.05 were considered to be statistically significant.

A further test deals with various animal models. The note with it: cited from earlier work.

Regarding `NS(=O)(=O)N[C@H]1c2c(F)cc(F)cc2CC1(F)F` [Compound (I), N-[(1S)-2,2,5,7-tetrafluoro-2,3-dihydro-1H-inden-1-yl]sulfamide], the Dyskinesia score in test [1] (Compound (I) 25 mg/kg (G2), 1 hr. after administration) is 2.0 ± 0.0; in test [1] (Compound (I) 25 mg/kg (G2), 4 hrs. after administration) it was 1.6 ± 0.2; in test [1] (Compound (I) 25 mg/kg (G2), 24 hrs. after administration), 2.0 ± 0.0; in test [1] (Compound (I) 25 mg/kg (G2), Pre (before administration)) it was 1.7 ± 0.2; in test [1] (Compound (I) 50 mg/kg (G3), 1 hr. after administration) it was 1.8 ± 0.2; in test [1] (Compound (I) 50 mg/kg (G3), 4 hrs. after administration), 1.3 ± 0.2. Also, the Dyskinesia score in test [1] (Compound (I) 50 mg/kg (G3), 24 hrs. after administration) is given as 1.8 ± 0.2; in test [1] (Compound (I) 50 mg/kg (G3), Pre (before administration)), 1.7 ± 0.2. Moreover, the “Mean value of the dyskinesia scores compared with other groups” value in test [1] (Compound (I) 50 mg/kg (G3), 4 hrs. after the administration, versus vehicle (G1) and istradefylline (G4)) was “lower as compared with the vehicle-treated group (G1) and the istradefylline-treated group (G4)”. Further, the analgesic effect entry in the test on various animal models was “exhibit an analgesic effect”.

Values taken from patent publication US20250195457A1, “PHARMACEUTICAL COMPOSITION FOR TREATMENT OF PARKINSON'S DISEASE” (Eisai R&D Management Co., Ltd., priority 2022, published 2025).
